Experimental data from US10058550B2, “Methods of treating heart failure” (priority 2015, dated 2018).

Target: human APJ receptor (Homo sapiens (Human), UniProt P35414)
Assay: biochemical
Format: biochemical
Details: read-out: Activity hAPJ SPA EC50 IP
Outline: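 Membranes from CHO cells stably expressing cloned human APJ were incubated with WGA SPA beads in 20 mM HEPES pH 7.5, 5 mM MgCl2, 0.1% BSA, 200 mM NaCl and 3 μM GDP. Reaction started with 0.2 nM [35S]GTPγS ± ligands, 90 min at RT. EC50 obtained by non-linear regression as mean of independent experiments.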

human APJ receptor, sequence (P35414 whole entry): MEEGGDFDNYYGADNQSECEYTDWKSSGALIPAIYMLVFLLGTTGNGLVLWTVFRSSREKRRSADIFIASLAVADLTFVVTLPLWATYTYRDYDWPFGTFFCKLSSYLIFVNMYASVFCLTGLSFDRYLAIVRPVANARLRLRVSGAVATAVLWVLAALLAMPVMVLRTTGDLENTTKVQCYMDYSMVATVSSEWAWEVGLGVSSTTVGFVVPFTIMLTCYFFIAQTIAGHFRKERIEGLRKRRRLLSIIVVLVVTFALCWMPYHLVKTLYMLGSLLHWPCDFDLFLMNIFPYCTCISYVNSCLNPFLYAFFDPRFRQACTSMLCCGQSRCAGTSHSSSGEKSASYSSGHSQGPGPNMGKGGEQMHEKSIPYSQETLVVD

| Compound | EC50 |
| --- | --- |
| COc1cccc(-c2nnc(NS(=O)(=O)[C@@H](C)[C@H](O)C(C)(C)C)n2-c2c(OC)cccc2OC)n1 (single isomer, unassigned) [Example 437.0, (2S,3R)—N-(4-(2,6-dimethoxyphenyl)-5-(6-methoxy-2-pyridinyl)-4H-1,2,4-triazol-3-yl)-3-hydroxy-4,4-dimethyl-2-pentanesulfonamide or (2R,3S)—N-(4-(2,6-dimethoxyphenyl)-5-(6-methoxy-2-pyridinyl)-4H-1,2,4-triazol-3-yl)-3-hydroxy-4,4-dimethyl-2-pentanesulfonamide] | 31 nM |
| COc1cccc(OC)c1-n1c(NS(=O)(=O)[C@@H](C)[C@H](OC)C2CCC2)nnc1-c1cncc(C)c1 (single isomer, unassigned) [Example 719.0] | 44 nM |
| COc1cccc(-c2nnc(NS(=O)(=O)[C@@H](C)[C@H](O)c3ccc(F)cc3F)n2-c2c(OC)cccc2OC)n1 (single isomer, unassigned) [Example 279.0] | 28 nM |
| CCO[C@H](c1ncc(F)cn1)[C@H](C)S(=O)(=O)Nc1nnc(-c2cccc(OC)n2)n1-c1c(OC)cccc1OC [Example 48.0, (1R,2S)-N-(4-(2,6-dimethoxyphenyl)-5-(6-methoxy-2-pyridinyl)-4H-1,2,4-triazol-3-yl)-1-ethoxy-1-(5-fluoro-2-pyrimidinyl)-2-propanesulfonamide] | 0.18 nM |
| COc1cccc(-c2nnc(NS(=O)(=O)[C@@H](C)[C@H](OC)c3ccc(C#N)cc3C#N)n2-c2c(OC)cccc2OC)n1 (single isomer, unassigned) [Example 474.0, (1R,2S)-1-(2,4-dicyanophenyl)-N-(4-(2,6-dimethoxyphenyl)-5-(6-methoxy-2-pyridinyl)-4H-1,2,4-triazol-3-yl)-1-methoxy-2-propanesulfonamide or (1S,2R)-1-(2,4-dicyanophenyl)-N-(4-(2,6-dimethoxyphenyl)-5-(6-methoxy-2-pyridinyl)-4H-1,2,4-triazol-3-yl)-1-methoxy-2-propanesulfonamide] | 0.35 nM |
| COc1cccc(OC)c1-n1c(NS(=O)(=O)[C@H](C)[C@@H](OC)c2ccc(Cl)cn2)nnc1-c1cccnc1 (single isomer, unassigned) [Example 530.0, (1S,2R)-1-(5-chloro-2-pyridinyl)-N-(4-(2,6-dimethoxyphenyl)-5-(3-pyridinyl)-4H-1,2,4-triazol-3-yl)-1-methoxy-2-propanesulfonamide or (1R,2S)-1-(5-chloro-2-pyridinyl)-N-(4-(2,6-dimethoxyphenyl)-5-(3-pyridinyl)-4H-1,2,4-triazol-3-yl)-1-methoxy-2-propanesulfonamide] | 48.5 nM |
| COc1cccc(OC)c1-n1c(NS(=O)(=O)[C@@H](C)[C@H](O)c2ccc(Br)c(C)n2)nnc1-c1cccnc1 (mixture of isomers) [Example 642.0, (1R,2S)-1-(5-bromo-6-methylpyridin-2-yl)-N-(4-(2,6-dimethoxyphenyl)-5-(pyridin-3-yl)-4H-1,2,4-triazol-3-yl)-1-hydroxypropane-2-sulfonamide and (1S,2R)-1-(5-bromo-6-methylpyridin-2-yl)-N-(4-(2,6-dimethoxyphenyl)-5-(pyridin-3-yl)-4H-1,2,4-triazol-3-yl)-1-hydroxypropane-2-sulfonamide] | 0.48 nM |
| COc1cccc(-c2nnc(NS(=O)(=O)[C@@H](C)[C@H](OC)c3ncc(C)cn3)n2-c2ccccc2C)n1 (atropisomer, axis not shown; (P)) [Example 61.0, (1R,2S,P)-1-methoxy-N-(5-(6-methoxy-2-pyridinyl)-4-(2-methylphenyl)-4H-1,2,4-triazol-3-yl)-1-(5-methyl-2-pyrimidinyl)-2-propanesulfonamide and (1R,2S,M)-1-methoxy-N-(5-(6-methoxy-2-pyridinyl)-4-(2-methylphenyl)-4H-1,2,4-triazol-3-yl)-1-(5-methyl-2-pyrimidinyl)-2-propanesulfonamide] | 6.5 nM |
| COc1cnc([C@@H](C)[C@H](C)S(=O)(=O)Nc2nnc(-c3cccc(OC)n3)n2C2CCOCC2)nc1 [Example 842.0, (2S,3R)-N-(5-(6-methoxy-2-pyridinyl)-4-(tetrahydro-2H-pyran-4-yl)-4H-1,2,4-triazol-3-yl)-3-(5-methoxy-2-pyrimidinyl)-2-butanesulfonamide] | 140 nM |
| COc1cccc(-c2nnc(NS(=O)(=O)C(C)C)n2-c2c(OC)cccc2OC)n1 [Example 100.0, N-(4-(2,6-dimethoxyphenyl)-5-(6-methoxypyridin-2-yl)-4H-1,2,4-triazol-3-yl)propane-2-sulfonamide] | 110 nM |
| COc1cccc(OC)c1-n1c(NS(=O)(=O)[C@@H](C)[C@@H](C)n2cc(C)cn2)nnc1-c1cncc(C)c1 (single isomer, unassigned) [Example 652.0] | 0.43 nM |
| CO[C@H](c1ncc(C)cn1)[C@H](C)S(=O)(=O)Nc1nnc(-c2cncc(C)c2)n1-c1c(Cl)cccc1Cl [Example 675.0, (1R,2S)-N-(4-(2,6-dichlorophenyl)-5-(5-methyl-3-pyridinyl)-4H-1,2,4-triazol-3-yl)-1-methoxy-1-(5-methyl-2-pyrimidinyl)-2-propanesulfonamide 2,2,2-trifluoroacetate] | 2.6 nM |
| COc1cccc(OC)c1-n1c(NS(=O)(=O)[C@@H](C)[C@@H](C)n2cc(C)cn2)nnc1-c1cncc(C)c1 (single isomer, unassigned) [Example 651.0] | 85 nM |
| COc1cccc(OC)c1-n1c(NS(=O)(=O)[C@@H](C)[C@H](OC)C2CC(C)(C)C2)nnc1-c1cncc(C)c1 (single isomer, unassigned) [Example 727.0] | 200 nM |
| CO[C@H](c1ncc(C)cn1)[C@H](C)S(=O)(=O)Nc1nnc(-c2cccnc2)n1-c1c(OC(F)F)cccc1OC(F)F [Example 669.0, (1R,2S)-N-(4-(2,6-bis(difluoromethoxy)phenyl)-5-(3-pyridinyl)-4H-1,2,4-triazol-3-yl)-1-methoxy-1-(5-methyl-2-pyrimidinyl)-2-propanesulfonamide] | 2.7 nM |
| COc1cccc(-c2nnc(NS(=O)(=O)[C@@H](C)[C@H](OC)c3ncc(C)cn3)n2-c2ccncc2)n1 [Example 42.0, (1R,2S)-1-methoxy-N-(5-(6-methoxypyridin-2-yl)-4-(pyridin-4-yl)-4H-1,2,4-triazol-3-yl)-1-(5-methylpyrimidin-2-yl)propane-2-sulfonamide] | 51 nM |
| COc1cccc(-c2nnc(NS(=O)(=O)[C@H](C)[C@@H](OCCO)c3ncc(C)cn3)n2-c2c(OC)cccc2OC)n1 (single isomer, unassigned) [Example 416.0, (1S,2R)—N-(4-(2,6-dimethoxyphenyl)-5-(6-methoxypyridin-2-yl)-4H-1,2,4-triazol-3-yl)-1-(2-hydroxyethoxy)-1-(5-methylpyrimidin-2-yl)propane-2-sulfonamide or (1R,2S)—N-(4-(2,6-dimethoxyphenyl)-5-(6-methoxypyridin-2-yl)-4H-1,2,4-triazol-3-yl)-1-(2-hydroxyethoxy)-1-(5-methylpyrimidin-2-yl)propane-2-sulfonamide] | 0.26 nM |
| COc1cccc(OC)c1-n1c(NS(=O)(=O)[C@@H](C)[C@H](OC)c2cnc(C)cn2)nnc1-c1ccccn1 [Example 780.0, (1R,2S)-N-(4-(2,6-dimethoxyphenyl)-5-(2-pyridinyl)-4H-1,2,4-triazol-3-yl)-1-methoxy-1-(5-methyl-2-pyrazinyl)-2-propanesulfonamide] | 8.8 nM |
